Values belong to the compound of their own block, whether it stands above or below them. The source made the active and inactive calls.
Legend:
Bcl-2-like protein 1 [1] = target: T1, Bcl-2-like protein 1 (Homo sapiens, UniProt Q07817); assay: Inhibition of biotinylated Bim BH3 peptide binding to GST-tagged human Bcl-xl expressed in Escherichia coli BL21 (DE3) incubated for 1 hr by ELISA
RS4-11 [2] = assay: Induction of apoptosis in human RS4-11 cells assessed as late apoptotic cells at 20 uM measured after 24 hrs by Annexin V/7-AAD and MitoSense Red staining based flow cytometry analysis relative to control (reference value: 0.99 %); assay type: functional
RS4-11 [3] = assay: Induction of apoptosis in human RS4-11 cells assessed as viable cells at 20 uM measured after 24 hrs by Annexin V/7-AAD and MitoSense Red staining based flow cytometry analysis relative to control (reference value: 94.15 %); assay type: functional; conditions: read-out: Activity
RS4-11 [4] = assay: Antitumor activity against human RS4-11 cells xenografted in NODSCID mouse assessed as inhibition of tumor growth at 12.5 mg/kg, ip administered every 2 days for 22 days and measured every 3 days relative to control; assay type: functional; parameters: scale not given: the % may be the effect or the level left; conditions: time 22 day
[5] = target: T2, Induced myeloid leukemia cell differentiation protein Mcl-1 (Homo sapiens, UniProt Q07820); assay: Binding affinity to full length human MCL1 expressed in Escherichia coli BL21 (DE3) assessed as inhibition constant preincubated for 30 mins followed by 5-FAM-QEDIIIINIARHLAQVGDSMD-RSIPPG tracer addition and measured after 20 mins by fluorescence polarization assay
[6] = Toxicity in NOD/SCID mouse xenografted with human RS4-11 cells assessed as reduction in body weight at 12.5 to 50 mg/kg, ip administered every 2 days for 22 days; assay type: organism-based; conditions: in vivo, 528 h, dose 12.5-50 mg/kg, time 22 day
[7] = target: Apoptosis regulator Bcl-2 (Homo sapiens, UniProt P10415); assay: Binding affinity to full length human Bcl-2 expressed in Escherichia coli BL21 (DE3) at up to 100 uM preincubated for 30 mins followed by 5-FAM-QEDIIIINIARHLAQVGDSMD-RSIPPG tracer addition and measured after 20 mins by fluorescence polarization assay; conditions: dose microM <=100, time 50.0 min
RS4-11 [8] = assay: cells; conditions: Homo sapiens, RS4-11, 48 h
Description: Cytotoxicity against human RS4-11 cells assessed as inhibition of cell growth incubated for 48 hrs by CCK8 assay

RS4-11 [9] = assay: Antitumor activity against human RS4-11 cells xenografted in NOD/SCID mouse assessed as reduction in tumor volume at 50 mg/kg, ip administered every 2 days for 22 days and measured every 3 days relative to control; assay type: functional; parameters: scale not given: the % may be the effect or the level left; conditions: time 22 day
RS4-11 [10] = assay: Induction of apoptosis in human RS4-11 cells assessed as increase in cleaved PARP expression incubated for 48 hrs by western blot analysis; assay type: functional, cell-based
RS4-11 [11] = assay: Antitumor activity against human RS4-11 cells xenografted in SCID mouse assessed as reduction in Ki-67 positive cells administered intraperitoneally for 19 days by immunohistochemical analysis; assay type: functional, cell-based; conditions: time 19.0 day
RS4-11 [12] = assay: Induction of apoptosis in human RS4-11 cells assessed as necrotic cells at 20 uM measured after 24 hrs by Annexin V/7-AAD and MitoSense Red staining based flow cytometry analysis relative to control (reference value: 1.11 %); assay type: functional
MCF7 = assay: Inhibition of Bcl-2/Bim interaction in human MCF7 cells assessed as disruption of Bcl-2/Bim complex at 10 uM measured after 24 hrs by co-immunoprecipitation based western blot analysis relative to control; assay type: cell-based
[13] = target: Induced myeloid leukemia cell differentiation protein Mcl-1/Bcl-2-like protein 11 (Homo sapiens) (UniProt Q07820+O43521); assay: Inhibition of MCL1/Bim interaction in human MCF7 cells assessed as disruption of MCL1/Bim complex at 10 uM measured after 24 hrs by co-immunoprecipitation based western blot analysis relative to control; assay type: cell-based
RS4-11 [14] = assay: Induction of apoptosis in human RS4-11 cells assessed as increase in cleaved caspase 3 expression incubated for 48 hrs by western blot analysis; assay type: functional, cell-based
HL-60 = assay: cells; conditions: Homo sapiens, HL-60, 48 h
Description: Cytotoxicity against human HL-60 cells assessed as inhibition of cell growth incubated for 48 hrs by CCK8 assay

HEK-293T = assay: Cytotoxicity against HEK293T cells assessed as reduction in cell viability incubated for 48 hrs by CCK8 assay; conditions: Homo sapiens
Bcl-2-like protein 1 [15] = target: T1, Bcl-2-like protein 1; assay: Binding affinity to full length human Bcl-xl expressed in Escherichia coli BL21 (DE3) at up to 100 uM preincubated for 30 mins followed by 5-FAM-QEDIIIINIARHLAQVGDSMD-RSIPPG tracer addition and measured after 20 mins by fluorescence polarization assay; conditions: dose microM <=100, time 50.0 min
RS4-11 [16] = assay: Induction of apoptosis in human RS4-11 cells assessed as early apoptotic cells at 20 uM measured after 24 hrs by Annexin V/7-AAD and MitoSense Red staining based flow cytometry analysis relative to control (reference value: 3.75 %); assay type: functional
RS4-11 [17] = assay: Antitumor activity against human RS4-11 cells xenografted in NOD/SCID mouse assessed as inhibition of tumor growth at 25 mg/kg, ip administered every 2 days for 22 days and measured every 3 days relative to control; assay type: functional; parameters: scale not given: the % may be the effect or the level left; conditions: time 22 day
RS4-11 [18] = assay: Induction of apoptosis in human RS4-11 cells assessed as increase in cleaved caspase 9 expression incubated for 48 hrs by western blot analysis; assay type: functional, cell-based
HeLa = assay: cells; conditions: Homo sapiens, 48 h
Description: Cytotoxicity against human HeLa cells assessed as inhibition of cell growth incubated for 48 hrs by CCK8 assay

Bcl-2-like protein 1 [19] = target: T1, Bcl-2-like protein 1; assay: Inhibition of FITC-labeled BH3 peptide binding to Bcl-xl (unknown origin) expressed in Escherichia coli BL21 (DE3) incubated for 0.5 hrs by TR-FRET assay
[20] = target: T2, Induced myeloid leukemia cell differentiation protein Mcl-1; assay: Binding affinity to full length human MCL1 expressed in Escherichia coli BL21 (DE3) at up to 100 uM preincubated for 30 mins followed by 5-FAM-QEDIIIINIARHLAQVGDSMD-RSIPPG tracer addition and measured after 20 mins by fluorescence polarization assay; conditions: dose microM <=100, time 50.0 min
RS4-11 [21] = assay: Induction of apoptosis in human RS4-11 cells assessed as late apoptotic cells at 1 uM measured after 24 hrs by Annexin V/7-AAD and MitoSense Red staining based flow cytometry analysis relative to control (reference value: 0.99 %); assay type: functional
RS4-11 [22] = assay: Induction of apoptosis in human RS4-11 cells assessed as viable cells at 1 uM measured after 24 hrs by Annexin V/7-AAD and MitoSense Red staining based flow cytometry analysis relative to control (reference value: 94.15 %); assay type: functional; conditions: read-out: Activity
RS4-11 [23] = assay: Induction of apoptosis in human RS4-11 cells assessed as necrotic cells at 1 uM measured after 24 hrs by Annexin V/7-AAD and MitoSense Red staining based flow cytometry analysis relative to control (reference value: 1.11 %); assay type: functional
RS4-11 [24] = assay: Induction of apoptosis in human RS4-11 cells assessed as early apoptotic cells at 1 uM measured after 24 hrs by Annexin V/7-AAD and MitoSense Red staining based flow cytometry analysis relative to control (reference value: 3.75 %); assay type: functional

T1 sequence (Q07817 whole entry): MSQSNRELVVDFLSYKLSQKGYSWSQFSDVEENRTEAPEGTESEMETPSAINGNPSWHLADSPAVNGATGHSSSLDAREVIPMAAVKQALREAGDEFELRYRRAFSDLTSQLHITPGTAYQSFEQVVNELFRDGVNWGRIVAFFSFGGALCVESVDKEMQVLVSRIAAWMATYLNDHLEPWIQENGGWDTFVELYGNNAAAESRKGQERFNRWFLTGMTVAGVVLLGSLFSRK
T2 sequence (Q07820 whole entry): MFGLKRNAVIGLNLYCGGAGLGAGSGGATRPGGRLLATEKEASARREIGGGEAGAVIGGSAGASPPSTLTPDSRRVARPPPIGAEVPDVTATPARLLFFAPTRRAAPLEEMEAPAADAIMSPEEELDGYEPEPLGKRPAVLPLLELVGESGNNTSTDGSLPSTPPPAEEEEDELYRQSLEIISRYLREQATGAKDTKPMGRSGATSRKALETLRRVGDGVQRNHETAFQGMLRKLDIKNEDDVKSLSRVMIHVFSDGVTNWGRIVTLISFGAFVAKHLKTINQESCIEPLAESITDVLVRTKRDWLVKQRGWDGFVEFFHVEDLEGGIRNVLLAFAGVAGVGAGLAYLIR
Apoptosis regulator Bcl-2, sequence (P10415 whole entry): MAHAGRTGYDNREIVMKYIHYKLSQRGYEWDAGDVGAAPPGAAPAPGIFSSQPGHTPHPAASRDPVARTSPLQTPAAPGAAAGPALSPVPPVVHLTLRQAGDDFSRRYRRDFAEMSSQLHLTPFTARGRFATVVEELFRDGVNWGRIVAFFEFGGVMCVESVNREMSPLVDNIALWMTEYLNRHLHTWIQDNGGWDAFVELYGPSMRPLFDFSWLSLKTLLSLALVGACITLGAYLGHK
Induced myeloid leukemia cell differentiation protein Mcl-1/Bcl-2-like protein 11 (Homo sapiens), sequence (O43521 whole entry, looked up): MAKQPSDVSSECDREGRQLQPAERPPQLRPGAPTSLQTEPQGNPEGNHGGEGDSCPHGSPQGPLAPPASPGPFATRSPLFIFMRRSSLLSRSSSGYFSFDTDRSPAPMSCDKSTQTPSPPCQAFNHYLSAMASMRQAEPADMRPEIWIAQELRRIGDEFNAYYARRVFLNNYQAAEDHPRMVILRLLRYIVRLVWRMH
Induced myeloid leukemia cell differentiation protein Mcl-1/Bcl-2-like protein 11 (Homo sapiens), sequence (Q07820 whole entry, looked up): as the sequence (Q07820 whole entry) above

SMILES: O=C(c1ccccc1O)c1[nH]c(Cl)c(Cl)c1-n1c(C(=O)c2ccccc2O)cc(Cl)c1Cl
IC50 (Bcl-2-like protein 1 [1]): > 80 µM

Ki [5]: 4.9 µM | Activity [7]: inactive | IC50 (RS4-11 [8]): 5.6 µM | inhibition [13]: 30% | IC50 (HL-60): 5.3 µM | Activity (Bcl-2-like protein 1 [15]): inactive | IC50 (HeLa): 10.2 µM
SMILES: COc1ccc(Oc2cc(C)ccc2-c2ccsc2S(=O)(=O)NCCNC(=O)Nc2cc(C(F)(F)F)cc(C(F)(F)F)c2)cc1OC
Activity (RS4-11 [2]): 94.21% | viability at 20 µM (RS4-11 [3]): 1.39% | Activity (RS4-11 [4]): >60% | Activity [6]: Non-Toxic | Activity (RS4-11 [9]): 75% | Activity (RS4-11 [10]): Dose-Dependent Effect | Activity (RS4-11 [11]): Dose-Dependent Effect | Activity (RS4-11 [12]): 0.24% | inhibition (MCF7): inactive | Activity (RS4-11 [14]): Dose-Dependent Effect | IC50 (HEK-293T): 9 µM | Activity (RS4-11 [16]): 4.15% | Activity (RS4-11 [17]): >60% | Activity (RS4-11 [18]): Dose-Dependent Effect

Ki (Bcl-2-like protein 1 [19]): > 10 µM
SMILES: Cc1cc(OCCCc2c3n(c4c(-c5c(C)nn(C)c5C)c(Cl)ccc24)CCCN(c2cc(C(=O)O)c4ccn(C)c4c2)C3=O)cc(C)c1Cl

Activity [20]: inactive
SMILES: CC1(C)CCC(CN2CCN(c3ccc(C(=O)NS(=O)(=O)c4ccc(NCC5CCOCC5)c([N+](=O)[O-])c4)c(Oc4cnc5[nH]ccc5c4)c3)CC2)=C(c2ccc(Cl)cc2)C1 [VENETOCLAX]
Activity (RS4-11 [10]): Dose-Dependent Effect | Activity (RS4-11 [21]): 88.54% | Activity (RS4-11 [14]): Dose-Dependent Effect | viability at 1 µM (RS4-11 [22]): 0.45% | Activity (RS4-11 [18]): Dose-Dependent Effect | Activity (RS4-11 [23]): 0.26% | Activity (RS4-11 [24]): 10.75%

Reference: ChEMBL document CHEMBL5034015, “Structure-Based Optimization of 3-Phenyl-N-(2-(3-phenylureido)ethyl)thiophene-2-sulfonamide Derivatives as Selective Mcl-1 Inhibitors” (J Med Chem, 2021)
